Measured values taken from PMC10779433, “Bidirectional Allosteric Coupling between PIP2 Binding and the Pore of the Oncochannel TRPV6” (International Journal of Molecular Sciences, 2024).
Read-outs that look alike come from different tables or passages of the source. Residues, ends and D or L forms follow the SMILES beside them. *: point of attachment. Palmitoyl = CCCCCCCCCCCCCCCC(=O)*

What was measured:
TRPV6 G488R = test: NFAT screen, TRPV6 G488R; type: cell-based, human; settings: HEK293 cells; 5 μM cis-22a, 2 h, vs DMSO
Description: (§1) N-terminally TagRFP-labeled human TRPV6 (725 aa) was kindly provided by R. Bhardwaj and M. Hediger (University of Bern, Bern, Switzerland). This variant is translated from the first ATG codon and thus deviates from the non-ATG-initiated protein which is expressed in vivo (accession number NM_018646.6) by lacking 40 amino acids of the very N-terminus. For N-terminal labeling with EYFP, TRPV6 was cloned into pEYFP-C1 (Clontech) via EcoRI and SacII restriction sites. […]
(§2) After incubation, cover slips were carefully rinsed with phenol red-free DMEM supplemented with the compound and dosage corresponding to the previous incubation, which was then also present during imaging. […] Subcellular NFAT localization of TRPV6 expressing cells was again monitored on an Axiovert 135 inverted microscope (Zeiss, Oberkochen, Germany), as described in more detail before. […] Images were analyzed using Matlab2018a, differentiating between three cell populations based on the ratio of CFP emission intensity originating from the nucleus and the cytosol, similar to Schober et al. (2019).

TRPV6 R492Q = test: NFAT screen, TRPV6 R492Q; type: cell-based, human; settings: HEK293 cells; 5 μM cis-22a, 2 h, vs DMSO
Description: as §1, §2

TRPV6 I575A = test system: TRPV6 I575A; set-up: method as in PMID 33246965; settings: HEK293 cells; 0.1 μM and 10 μM cis-22a; Figure 5B; ref [47]; cited from earlier work
TRPV6 H582A = test: NFAT screen, TRPV6 H582A; type: cell-based, human; settings: HEK293 cells; 5 μM cis-22a, 2 h, vs DMSO; analysable cells hardly present
Description: as §1, §2

TRPV6 G579A = test: NFAT screen, TRPV6 G579A; type: cell-based, human; settings: HEK293 cells; 5 μM cis-22a, 2 h; homogeneous localization preferred already without cis-22a
Description: as §1, §2

TRPV6 R492A = test: NFAT screen, TRPV6 R492A; type: cell-based, human; settings: HEK293 cells; 5 μM cis-22a, 2 h; nuclear NFAT already reduced without cis-22a
Description: as §1, §2

TRPV6 R470A W583F = test system: TRPV6 R470A W583F; set-up: method as in PMID 33246965; settings: ref [47], cited from earlier work
TRPV6 W583A = test: NFAT screen, TRPV6 W583A; type: cell-based, human; settings: HEK293 cells; 5 μM cis-22a, 2 h, vs DMSO; analysable cells hardly present
Description: as §1, §2

TRPV6 WT = biological target: T1, TRPV6 WT (Homo sapiens, UniProt Q9H1D0); test: Fura-2 Ca2+ imaging, TRPV6 WT; type: cell-based; settings: 20 μM pal-PIP2 peptide; for inhibition at 20 µM: HEK293, read-out: mean percentage of inhibition (Fura-2 signal), HEK293 cells
T1 construct: expressed in transfected cells; host or cells: HEK293 cells, transient transfection
T1 sequence (Q9H1D0 41-765 limits assumed): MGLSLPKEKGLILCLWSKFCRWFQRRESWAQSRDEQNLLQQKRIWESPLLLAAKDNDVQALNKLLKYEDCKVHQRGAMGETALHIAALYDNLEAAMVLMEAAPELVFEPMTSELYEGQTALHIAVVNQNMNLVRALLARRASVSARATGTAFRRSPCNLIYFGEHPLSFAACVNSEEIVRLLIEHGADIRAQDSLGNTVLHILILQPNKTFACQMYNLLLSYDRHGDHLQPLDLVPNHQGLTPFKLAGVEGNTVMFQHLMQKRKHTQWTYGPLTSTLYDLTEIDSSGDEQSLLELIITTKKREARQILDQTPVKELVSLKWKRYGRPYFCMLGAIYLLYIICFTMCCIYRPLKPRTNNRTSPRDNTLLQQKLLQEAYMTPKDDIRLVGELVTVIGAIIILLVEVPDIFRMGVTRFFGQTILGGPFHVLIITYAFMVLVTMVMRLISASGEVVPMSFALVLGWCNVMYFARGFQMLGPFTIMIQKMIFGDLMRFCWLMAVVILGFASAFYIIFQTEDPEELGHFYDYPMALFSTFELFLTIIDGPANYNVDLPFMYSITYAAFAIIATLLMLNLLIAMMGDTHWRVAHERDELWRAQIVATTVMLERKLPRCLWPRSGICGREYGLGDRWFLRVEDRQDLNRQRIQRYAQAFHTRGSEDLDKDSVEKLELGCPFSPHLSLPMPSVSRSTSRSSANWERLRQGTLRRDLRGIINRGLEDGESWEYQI

Row | Compound | reduction of nuclear NFAT localization (TRPV6 G488R) | reduction of nuclear NFAT localization (TRPV6 R492Q) | response to cis-22a vs TRPV6 WT (TRPV6 I575A) | change of nuclear NFAT localization (TRPV6 H582A) | change of nuclear NFAT localization (TRPV6 G579A) | reduction of nuclear NFAT localization (TRPV6 R492A) | inhibition by cis-22a in electrophysiological measurements (TRPV6 R470A W583F; HEK293 cells, 0.1 and 10 μM cis-22a, n=6, Figure S6B) | resistance to cis-22a vs single mutants (TRPV6 R470A W583F; R470A W583F, especially at the high blocker concentration) | inhibition by cis-22a (in words) (TRPV6 R470A W583F; R470A W583F) | change of nuclear NFAT localization (TRPV6 W583A) | inhibition at 20 µM (TRPV6 WT; applied after 0.5 μM cis-22a, Figure 6D, not significantly different from reverse order) [%] | inhibition at 20 µM (TRPV6 WT; applied first (before cis-22a), Figure 6C) [%] | decrease in cytosolic Ca2+ level (TRPV6 WT; HEK293 cells, 2 mM Ca2+, Figure 1B, significantly stronger than control peptide (p < 0.05)) | reduction of intracellular Ca2+ level (TRPV6 WT; HEK293 cells, 2 mM Ca2+, Figure 2A, comparison with G488R)
1 | Cc1cccc(C2CCC(N3CCN(c4cccnc4)CC3)CC2)c1.O=C(O)C(F)(F)F (stereo not drawn) [cis-22a] | impeded cis-22a-based reductions in nuclear NFAT localization | failed to significantly reduce NFAT nuclear localization | significantly reduced response | nuclear NFAT localization was higher for cis-22a-treated cells compared to the DMSO control | further significant reduction in the proportion of cells showing nucleus-resident NFAT | further significant reduction in nucleus-targeted NFAT | just modest inhibition | considerably higher resistance | very weak inhibition | nuclear NFAT localization was higher for cis-22a-treated cells compared to the DMSO control |  |  |  | 
2 | CCCCCCCCCCCCCCCC(=O)N[C@@H](Cc1c[nH]cn1)C(=O)N[C@@H](CCCNC(=N)N)C(=O)N[C@@H](CCC(N)=O)C(=O)N[C@@H](CCCCN)C(=O)N[C@@H](Cc1c[nH]cn1)C(=O)N[C@@H](Cc1ccccc1)C(=O)N[C@@H](CCC(=O)O)C(=O)N[C@@H](CCCCN)C(=O)N[C@@H](CCCNC(=N)N)C(=O)N[C@@H](CCCNC(=N)N)C(N)=O [pal-PIP2 peptide] (Palmitoyl-HRQKHFEKRR-NH2) |  |  |  |  |  |  |  |  |  |  | 9.18 | 10.8 | approximately 11% | about 13%
